# Measured values published in ChEMBL document CHEMBL3745672, “Novel compounds reducing IRS-1 serine phosphorylation for treatment of diabetes” (Bioorg Med Chem Lett, 2016).
# Experiments:
# [1] = target: Tyrosine-protein kinase ABL1 (Homo sapiens) (UniProt P00519); assay: Inhibition of ABL (unknown origin) at 10 uM
# [2] = target: T1, Serine/threonine-protein kinase Chk1 (Homo sapiens) (UniProt O14757); assay: Inhibition of CHK1 (unknown origin) at 10 uM
# T1 sequence (whole entry): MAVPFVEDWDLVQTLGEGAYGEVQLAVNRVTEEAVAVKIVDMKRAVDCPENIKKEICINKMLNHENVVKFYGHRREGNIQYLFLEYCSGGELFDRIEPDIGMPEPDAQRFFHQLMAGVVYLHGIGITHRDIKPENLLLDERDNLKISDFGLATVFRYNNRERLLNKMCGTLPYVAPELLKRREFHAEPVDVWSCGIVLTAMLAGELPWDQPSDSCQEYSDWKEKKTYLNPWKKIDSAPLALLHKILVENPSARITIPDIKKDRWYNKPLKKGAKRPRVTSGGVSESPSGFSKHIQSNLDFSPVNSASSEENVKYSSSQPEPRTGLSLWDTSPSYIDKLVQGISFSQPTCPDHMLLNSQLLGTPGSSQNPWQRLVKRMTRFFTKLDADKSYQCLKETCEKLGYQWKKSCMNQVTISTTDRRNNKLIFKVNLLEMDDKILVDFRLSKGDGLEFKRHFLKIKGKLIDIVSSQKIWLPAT
# [3] = target: Tyrosine-protein kinase SYK (Homo sapiens) (UniProt P43405); assay: Inhibition of SYK (unknown origin) at 10 uM
# [4] = target: Serine/threonine-protein kinase PLK3 (Homo sapiens) (UniProt Q9H4B4); assay: Inhibition of PLK3 (unknown origin) at 10 uM
# [5] = target: Proto-oncogene tyrosine-protein kinase Src (Homo sapiens) (UniProt P12931); assay: Inhibition of SRC (unknown origin) at 10 uM
# Sequence of Proto-oncogene tyrosine-protein kinase Src (Homo sapiens) (P12931 2-536 limits assumed): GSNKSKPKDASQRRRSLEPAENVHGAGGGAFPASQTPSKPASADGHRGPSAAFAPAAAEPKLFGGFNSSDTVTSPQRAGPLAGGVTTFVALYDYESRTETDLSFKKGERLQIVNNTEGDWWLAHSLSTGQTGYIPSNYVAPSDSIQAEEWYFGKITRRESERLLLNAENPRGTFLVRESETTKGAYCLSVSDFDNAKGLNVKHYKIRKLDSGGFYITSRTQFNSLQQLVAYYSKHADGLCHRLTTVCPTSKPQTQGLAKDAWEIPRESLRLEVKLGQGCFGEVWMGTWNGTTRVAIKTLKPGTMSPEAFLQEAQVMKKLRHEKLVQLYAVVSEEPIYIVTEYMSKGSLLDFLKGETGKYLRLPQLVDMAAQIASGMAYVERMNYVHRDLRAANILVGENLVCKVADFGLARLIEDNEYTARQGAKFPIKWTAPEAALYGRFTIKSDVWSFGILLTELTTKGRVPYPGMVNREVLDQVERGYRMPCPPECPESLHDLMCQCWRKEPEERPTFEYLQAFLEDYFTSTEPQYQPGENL
# [6] = target: Cyclin-dependent kinase 4/cyclin D1 (Homo sapiens) (UniProt P11802+P24385); assay: Inhibition of CDK4/cyclin D1 (unknown origin) at 10 uM; format: protein-complex assay
# [7] = target: T2, Tyrosine-protein kinase JAK3 (Homo sapiens) (UniProt P52333); assay: Inhibition of JAK3 (unknown origin) at 10 uM
# T2 sequence (whole entry): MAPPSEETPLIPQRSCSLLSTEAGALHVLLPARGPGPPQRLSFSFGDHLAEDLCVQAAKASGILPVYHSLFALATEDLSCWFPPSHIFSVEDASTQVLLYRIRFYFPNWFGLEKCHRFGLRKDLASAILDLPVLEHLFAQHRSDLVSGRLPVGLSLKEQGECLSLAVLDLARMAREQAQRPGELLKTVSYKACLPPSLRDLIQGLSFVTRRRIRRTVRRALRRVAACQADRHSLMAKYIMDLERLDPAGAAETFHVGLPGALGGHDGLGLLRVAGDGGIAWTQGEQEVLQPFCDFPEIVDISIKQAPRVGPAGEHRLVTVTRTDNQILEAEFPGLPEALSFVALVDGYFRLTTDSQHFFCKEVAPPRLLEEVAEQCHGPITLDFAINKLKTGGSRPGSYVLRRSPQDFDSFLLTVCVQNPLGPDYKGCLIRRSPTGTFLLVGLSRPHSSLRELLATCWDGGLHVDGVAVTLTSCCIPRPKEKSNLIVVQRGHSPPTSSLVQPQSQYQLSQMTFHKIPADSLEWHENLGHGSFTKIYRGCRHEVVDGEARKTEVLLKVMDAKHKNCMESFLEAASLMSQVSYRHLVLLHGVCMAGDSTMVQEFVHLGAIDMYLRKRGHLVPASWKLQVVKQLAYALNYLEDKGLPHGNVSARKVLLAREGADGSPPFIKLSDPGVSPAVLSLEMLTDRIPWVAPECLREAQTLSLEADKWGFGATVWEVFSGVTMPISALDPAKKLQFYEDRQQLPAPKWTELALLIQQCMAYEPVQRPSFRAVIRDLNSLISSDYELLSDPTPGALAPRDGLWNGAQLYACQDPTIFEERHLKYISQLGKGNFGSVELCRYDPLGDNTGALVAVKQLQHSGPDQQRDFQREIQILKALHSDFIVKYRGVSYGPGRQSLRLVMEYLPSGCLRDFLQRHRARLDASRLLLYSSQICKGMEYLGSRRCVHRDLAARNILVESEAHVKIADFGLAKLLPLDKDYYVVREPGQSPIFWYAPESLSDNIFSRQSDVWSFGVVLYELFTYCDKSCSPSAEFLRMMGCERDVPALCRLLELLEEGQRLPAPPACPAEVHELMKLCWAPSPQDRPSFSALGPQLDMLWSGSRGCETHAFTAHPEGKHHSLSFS
# [8] = target: Vascular endothelial growth factor receptor 2 (Homo sapiens) (UniProt P35968); assay: Inhibition of VEGFR2 (unknown origin) at 10 uM
# Sequence of Vascular endothelial growth factor receptor 2 (Homo sapiens) (P35968 whole entry): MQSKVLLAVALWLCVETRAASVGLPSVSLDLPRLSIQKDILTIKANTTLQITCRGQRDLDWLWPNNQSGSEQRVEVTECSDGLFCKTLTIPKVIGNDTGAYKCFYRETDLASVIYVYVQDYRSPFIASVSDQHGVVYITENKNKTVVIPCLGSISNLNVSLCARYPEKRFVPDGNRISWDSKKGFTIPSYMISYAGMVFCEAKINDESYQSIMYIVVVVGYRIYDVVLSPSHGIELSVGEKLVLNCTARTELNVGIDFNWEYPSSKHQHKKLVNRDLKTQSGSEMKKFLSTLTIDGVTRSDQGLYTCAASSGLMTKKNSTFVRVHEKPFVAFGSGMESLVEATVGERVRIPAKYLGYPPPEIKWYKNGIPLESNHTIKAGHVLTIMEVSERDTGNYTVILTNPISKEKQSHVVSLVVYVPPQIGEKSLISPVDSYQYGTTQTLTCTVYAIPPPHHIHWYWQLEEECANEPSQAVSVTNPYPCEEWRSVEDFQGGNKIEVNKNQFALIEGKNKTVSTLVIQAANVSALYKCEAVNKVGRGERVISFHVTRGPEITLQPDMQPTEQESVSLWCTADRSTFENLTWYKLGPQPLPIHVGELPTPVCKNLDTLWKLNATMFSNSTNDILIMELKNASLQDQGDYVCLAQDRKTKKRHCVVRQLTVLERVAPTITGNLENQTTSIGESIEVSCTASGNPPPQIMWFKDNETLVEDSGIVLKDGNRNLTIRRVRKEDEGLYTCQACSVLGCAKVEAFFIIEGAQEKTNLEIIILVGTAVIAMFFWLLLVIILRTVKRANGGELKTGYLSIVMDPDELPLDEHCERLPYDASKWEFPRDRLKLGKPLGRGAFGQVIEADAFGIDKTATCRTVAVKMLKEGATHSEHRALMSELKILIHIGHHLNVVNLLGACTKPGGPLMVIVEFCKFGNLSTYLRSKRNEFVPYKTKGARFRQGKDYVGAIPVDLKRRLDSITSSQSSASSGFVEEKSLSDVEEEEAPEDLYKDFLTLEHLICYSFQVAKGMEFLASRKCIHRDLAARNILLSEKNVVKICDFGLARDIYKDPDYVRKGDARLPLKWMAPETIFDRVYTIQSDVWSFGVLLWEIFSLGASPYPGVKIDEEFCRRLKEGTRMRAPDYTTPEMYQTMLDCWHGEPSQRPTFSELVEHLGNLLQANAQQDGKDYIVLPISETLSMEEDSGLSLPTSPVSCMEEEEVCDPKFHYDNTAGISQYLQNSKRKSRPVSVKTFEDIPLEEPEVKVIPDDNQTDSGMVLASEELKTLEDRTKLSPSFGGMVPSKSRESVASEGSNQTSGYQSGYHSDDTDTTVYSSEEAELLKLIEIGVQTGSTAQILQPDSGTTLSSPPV
# [9] = target: Tyrosine-protein kinase CSK (Homo sapiens) (UniProt P41240); assay: Inhibition of CSK (unknown origin) at 10 uM
# [10] = target: Angiopoietin-1 receptor (Homo sapiens) (UniProt Q02763); assay: Inhibition of TIE2 (unknown origin) at 10 uM
# Sequence of Angiopoietin-1 receptor (Homo sapiens) (Q02763 whole entry, the tested form may be a part): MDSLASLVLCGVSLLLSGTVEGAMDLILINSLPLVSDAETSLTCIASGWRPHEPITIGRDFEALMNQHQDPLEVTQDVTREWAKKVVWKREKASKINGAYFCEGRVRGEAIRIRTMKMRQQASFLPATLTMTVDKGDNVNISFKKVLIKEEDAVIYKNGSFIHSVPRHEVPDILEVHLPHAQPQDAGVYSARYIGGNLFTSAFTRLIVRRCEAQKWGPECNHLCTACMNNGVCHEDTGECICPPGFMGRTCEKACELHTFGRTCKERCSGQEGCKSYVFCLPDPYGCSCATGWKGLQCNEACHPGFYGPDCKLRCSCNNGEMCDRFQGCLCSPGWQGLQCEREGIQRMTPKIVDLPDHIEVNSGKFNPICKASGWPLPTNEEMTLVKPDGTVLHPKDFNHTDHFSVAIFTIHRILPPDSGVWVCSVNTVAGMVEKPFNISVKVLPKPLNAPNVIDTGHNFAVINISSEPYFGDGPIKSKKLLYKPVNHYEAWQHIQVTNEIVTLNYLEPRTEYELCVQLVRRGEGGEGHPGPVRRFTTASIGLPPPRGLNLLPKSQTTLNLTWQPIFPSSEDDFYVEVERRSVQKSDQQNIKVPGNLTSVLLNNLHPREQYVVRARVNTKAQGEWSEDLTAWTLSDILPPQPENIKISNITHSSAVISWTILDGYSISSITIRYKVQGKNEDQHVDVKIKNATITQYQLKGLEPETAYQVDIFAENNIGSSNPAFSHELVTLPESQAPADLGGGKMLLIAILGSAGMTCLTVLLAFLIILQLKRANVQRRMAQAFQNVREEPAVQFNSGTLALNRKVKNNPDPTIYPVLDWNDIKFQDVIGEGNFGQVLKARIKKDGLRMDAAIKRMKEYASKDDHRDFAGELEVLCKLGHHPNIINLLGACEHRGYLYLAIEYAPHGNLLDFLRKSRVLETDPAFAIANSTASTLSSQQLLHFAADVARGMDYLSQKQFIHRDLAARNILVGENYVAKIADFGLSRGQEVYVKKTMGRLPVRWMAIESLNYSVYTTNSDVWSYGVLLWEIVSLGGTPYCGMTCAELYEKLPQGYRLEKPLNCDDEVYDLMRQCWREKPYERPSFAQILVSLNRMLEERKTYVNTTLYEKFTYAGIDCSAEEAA
# [11] = target: Epithelial discoidin domain-containing receptor 1 (Homo sapiens) (UniProt Q08345); assay: Inhibition of DDR1 (unknown origin) at 10 uM
# [12] = target: Serine/threonine-protein kinase pim-1 (Homo sapiens) (UniProt P11309); assay: Inhibition of PIM1 (unknown origin) at 10 uM
# Sequence of Serine/threonine-protein kinase pim-1 (Homo sapiens) (P11309 whole entry, looked up): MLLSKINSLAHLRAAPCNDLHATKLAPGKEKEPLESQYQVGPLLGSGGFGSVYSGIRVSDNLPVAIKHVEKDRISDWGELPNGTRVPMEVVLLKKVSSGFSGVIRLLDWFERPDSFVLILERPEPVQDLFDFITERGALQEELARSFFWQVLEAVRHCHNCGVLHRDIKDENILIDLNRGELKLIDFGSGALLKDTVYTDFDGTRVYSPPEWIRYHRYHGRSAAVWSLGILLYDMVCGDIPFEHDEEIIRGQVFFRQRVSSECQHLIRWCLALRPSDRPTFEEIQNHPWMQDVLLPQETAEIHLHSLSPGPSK
# [13] = target: Rho-associated protein kinase 2 (Homo sapiens) (UniProt O75116); assay: Inhibition of ROCK2 (unknown origin) at 10 uM
# [14] = target: Death-associated protein kinase 3 (Homo sapiens) (UniProt O43293); assay: Inhibition of DAPK3 (unknown origin) at 10 uM
# [15] = target: Fibroblast growth factor receptor 3 (Homo sapiens) (UniProt P22607); assay: Inhibition of FGFR3 (unknown origin) at 10 uM
# [16] = target: Mitogen-activated protein kinase 8 (Homo sapiens, UniProt P45983); assay: Inhibition of JNK1 (unknown origin) expressed in HEK293 cells assessed as anisomycin-induced JNK phosphorylation at 10 uM incubated for 30 mins by Western blot analysis relative to anisomycin; format: cell-based; parameters: scale not given: the % may be the effect or the level left
# Sequence of Mitogen-activated protein kinase 8 (P45983 whole entry): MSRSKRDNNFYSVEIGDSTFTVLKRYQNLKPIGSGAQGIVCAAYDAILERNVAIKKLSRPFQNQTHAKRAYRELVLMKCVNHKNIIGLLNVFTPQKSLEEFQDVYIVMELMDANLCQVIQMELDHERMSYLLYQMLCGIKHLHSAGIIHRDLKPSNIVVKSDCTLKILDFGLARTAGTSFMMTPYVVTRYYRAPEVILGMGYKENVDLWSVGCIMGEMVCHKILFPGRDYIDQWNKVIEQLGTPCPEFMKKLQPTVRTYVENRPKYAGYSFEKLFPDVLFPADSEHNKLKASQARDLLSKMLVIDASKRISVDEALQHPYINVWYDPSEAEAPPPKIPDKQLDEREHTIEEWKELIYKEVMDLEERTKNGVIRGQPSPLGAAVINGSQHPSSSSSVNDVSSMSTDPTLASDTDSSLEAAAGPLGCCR
# Sequence of Tyrosine-protein kinase ABL1 (Homo sapiens) (P00519 whole entry): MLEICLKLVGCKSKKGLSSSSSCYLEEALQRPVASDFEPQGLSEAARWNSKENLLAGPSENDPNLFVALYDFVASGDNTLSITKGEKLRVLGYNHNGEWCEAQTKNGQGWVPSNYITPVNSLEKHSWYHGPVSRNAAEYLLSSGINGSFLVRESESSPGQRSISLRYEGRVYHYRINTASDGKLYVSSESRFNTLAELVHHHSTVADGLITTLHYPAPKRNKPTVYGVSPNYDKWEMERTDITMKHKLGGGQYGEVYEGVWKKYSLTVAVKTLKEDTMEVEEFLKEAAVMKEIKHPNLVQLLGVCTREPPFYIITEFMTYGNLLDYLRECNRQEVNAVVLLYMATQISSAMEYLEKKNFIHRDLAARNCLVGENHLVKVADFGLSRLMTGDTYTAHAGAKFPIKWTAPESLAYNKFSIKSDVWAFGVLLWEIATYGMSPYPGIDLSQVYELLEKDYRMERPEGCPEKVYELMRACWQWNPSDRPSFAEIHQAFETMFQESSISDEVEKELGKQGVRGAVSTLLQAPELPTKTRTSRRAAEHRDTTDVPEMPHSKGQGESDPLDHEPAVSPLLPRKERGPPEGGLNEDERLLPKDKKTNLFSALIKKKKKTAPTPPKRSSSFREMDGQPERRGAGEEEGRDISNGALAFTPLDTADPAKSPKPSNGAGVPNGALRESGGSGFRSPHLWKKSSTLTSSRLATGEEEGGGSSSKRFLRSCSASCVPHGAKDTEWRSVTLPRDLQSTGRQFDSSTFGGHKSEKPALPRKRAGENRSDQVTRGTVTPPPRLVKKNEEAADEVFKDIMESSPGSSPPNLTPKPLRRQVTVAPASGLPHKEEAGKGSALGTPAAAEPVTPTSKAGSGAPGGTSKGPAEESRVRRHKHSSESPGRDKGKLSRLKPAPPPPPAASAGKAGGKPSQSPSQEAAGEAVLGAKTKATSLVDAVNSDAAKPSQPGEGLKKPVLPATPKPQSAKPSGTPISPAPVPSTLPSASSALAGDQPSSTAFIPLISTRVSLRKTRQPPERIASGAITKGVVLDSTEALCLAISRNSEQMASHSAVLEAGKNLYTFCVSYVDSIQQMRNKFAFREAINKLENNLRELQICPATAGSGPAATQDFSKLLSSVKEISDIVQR
inhibition [1],inhibition [2],inhibition [3],inhibition [4],inhibition [5],inhibition [6],inhibition [7],inhibition [8],inhibition [9],inhibition [10],inhibition [11],inhibition [12],inhibition [13],inhibition [15],Activity [16],Compound,inhibition [14]
24%,8%,0%,0%,18%,6%,0%,30%,4%,0%,91%,0%,3%,0%,153%,CN1CCN(CCCNc2ncc3cc(Oc4ccc(F)cc4F)c(=O)n(C)c3n2)CC1,12%
0%,3%,3%,0%,6%,17%,0%,1%,5%,0%,51%,1%,2%,7%,104%,CN(C)CCNc1ncc2cc(Oc3ccc(F)cc3F)c(=O)n(C)c2n1,0%
91%,2%,0%,0%,72%,61%,7%,24%,8%,3%,89%,13%,3%,9%,45%,CN1CCN(c2ccc(Nc3ncc4cc(Oc5c(Cl)cccc5Cl)c(=O)n(C)c4n3)cc2)CC1,15%
20%,2%,8%,29%,28%,22%,10%,20%,15%,4%,99%,24%,5%,7%,149%,Cn1c(=O)c(Oc2ccc(F)cc2F)cc2cnc(Nc3ccc(N4CCCCC4)cc3)nc21,0%
7%,14%,3%,0%,16%,17%,0%,3%,6%,0%,95%,3%,3%,4%,82%,Cn1c(=O)c(Oc2ccc(F)cc2F)cc2cnc(NCCc3ccccn3)nc21,0%
8%,4%,1%,0%,4%,62%,0%,24%,5%,2%,84%,5%,6%,0%,77.2%,Cn1c(=O)c(Oc2ccc(F)cc2F)cc2cnc(NC3CCN(S(C)(=O)=O)CC3)nc21,2%
–,–,–,–,–,–,–,–,–,–,–,–,–,–,30.5%,Cn1c(=O)c(Oc2ccc(F)cc2F)cc2cnc(NC3CCN(S(N)(=O)=O)CC3)nc21,–
81%,-1%,26%,33%,100%,30%,55%,100%,34%,10%,100%,22%,12%,50%,29.6%,Cn1c(=O)c(Oc2ccc(F)cc2F)cc2cnc(Nc3ccc(N4CCC(O)CC4)cc3)nc21,0%
0%,8%,8%,0%,8%,16%,0%,1%,4%,0%,33%,0%,4%,3%,55.2%,Cn1c(=O)c(Oc2c(Cl)cccc2Cl)cc2cnc(NC3CCOCC3)nc21,0%
100%,4%,13%,1%,99%,61%,41%,98%,20%,5%,100%,-4%,14%,0%,133%,CN1CCN(c2ccc(Nc3ncc4cc(Oc5ccc(F)cc5F)c(=O)n(C)c4n3)cc2)CC1,12%
